Test results as given in US20230365608A1 (priority 2019, published 2023).

Assays:
[1] = test system: Influenza strains A/WSN/33 (H1N1); test: Influenza A/WSN/33 (H1N1) antiviral assay in A549 cells (MUNANA neuraminidase readout); format: cell-based, Influenza A virus (H1N1); human lung carcinoma A549 cells; details: Influenza A virus, compound 24 h before infection, 250 IU/well, 20 h infection
Experimental: (§1) EC50 [uM] as Measured Using Two Cell Lines: WSN/33 (H1N1) A549 and MDCK
1. Human lung carcinoma A549 cells (ATCC, Manassas, VA) were plated at a density of 5×10^4 cells/ml (5×10^3 cells/well) in maintenance media (Ham's F12 media supplemented with 10% FBS, 1% penicillin/streptomycin, 1% HEPES, 1% Glutamine and 1% non-essential amino acids (all Mediatech, Manassas, VA) in 96-well plates. After 24 hours, serially diluted compounds in assay media (Ham's F12 supplemented with 0.3FBS, 1% penicillin/streptomycin, 1% HEPES, 1% Glutamine and 1% non-essential amino acids) were added to cells and incubated for an additional 24 hours. Cells were infected with 250 IU/well of Influenza strains A/WSN/33 (H1N1) (Virapur, San Diego CA) and incubated for 20 h at 37° C., 5% CO2. The cell culture supernatant was aspirated off and 50 μl 25 μM 2′-(4-Methylumbelliferyl)-a-D-N-acetylneuraminic acid (MUNANA, Sigma-Aldrich) dissolved in 33 mM MES, pH 6.5 (Emerald Biosystems, Bainbridge Island, WA) was added to the cells. After incubation for 45 min at 30° C., reactions were stopped by addition of 150 μL stop solution (100 mM glycine, pH 10.5, 25% ethanol, all Sigma-Aldrich). Fluorescence was measured with excitation and emission filters of 355 and 460 nm, respectively, on a Victor X3 multi-label plate reader (Perkin Elmer, Waltham, MA). Cytotoxicity of uninfected parallel cultures was determined by addition of 100 μL CellTiter-Glo® reagent (Promega, Madison, WI), and incubation for 10 min at room temperature. Luminescence was measured on a Victor X3 multi-label plate reader.

[2] = test system: Influenza strains A/WSN/33 (H1N1); test: Influenza A/WSN/33 (H1N1) antiviral assay in MDCK cells (MUNANA neuraminidase readout); format: cell-based; details: Influenza A virus, in Canis lupus familiaris, compound 24 h before infection, 250 IU/well, 20 h infection
Experimental: as §1
2. Alternatively, Madin-Darby canine kidney epithelial cells (MDCK, ATCC), were plated at a density of 7.5×10^4 cells/ml (7.5×10^3 cells/well) in maintenance media (DMEM with same supplements as above) in 96-well plates. After 24 hours, serially diluted compounds in assay media (MEM supplemented with 0.3FBS, 1% penicillin/streptomycin, 1% HEPES, 1% Glutamine and 1% non-essential amino acids) were added to cells and incubated for an additional 24 hours. Cells were infected with 250 IU/well of Influenza strains A/WSN/33 (H1N1) and incubated for 20 h at 37° C., 5% CO2. The cell culture supernatant was aspirated off and 50 μL 25 μM 2′-(4-Methylumbelliferyl)-a-D-N-acetyl neuraminic acid (MUNANA, Sigma-Aldrich) dissolved in 33 mM MES, pH 6.5 (Emerald Biosystems, Bainbridge Island, WA) was added to the cells. After incubation for 45 min at 30° C., reactions were stopped by addition of 150 μl stop solution (100 mM glycine, pH 10.5, 25% ethanol, all Sigma-Aldrich). Fluorescence was measured with excitation and emission filters of 355 and 460 nm, respectively, on a Victor X3 multi-label plate reader (Perkin Elmer, Waltham, MA). Cytotoxicity of uninfected parallel cultures was determined by addition of 100 μL CellTiter-Glo® reagent (Promega, Madison, WI), and incubation for 10 min at room temperature. Luminescence was measured on a Victor X3 multi-label plate reader.

Row | SMILES | EC50 [1] [µM] | EC50 [2] [µM]
1 | CC(C)[C@H](N)C(=O)OC[C@H]1O[C@@H](c2nc(C(N)=O)ns2)[C@H](O)[C@@H]1O [Example 7, ((2R,3S,4R,5R)-5-(3-Carbamoyl-1,2,4-thiadiazol-5-yl)-3,4-dihydroxytetrahydrofuran-2-yl)methyl valinate] | 1.35 | 
2 | NC(=O)c1nsc([C@@H]2O[C@H](CO)[C@@H](O)[C@H]2O)n1 [Example 1, 5-((2R,3R,4S,5R)-3,4-Dihydroxy-5-(hydroxymethyl)tetrahydrofuran-2-yl)-1,2,4-thiadiazole-3-carboxamide] | 1.35 | 
3 | CC(C)C(=O)OC[C@H]1O[C@@H](c2nc(C(N)=O)ns2)[C@H](O)[C@@H]1O [Example 4, ((2R,3S,4R,5R)-5-(3-Carbamoyl-1,2,4-thiadiazol-5-yl)-3,4-dihydroxytetrahydrofuran-2-yl)methyl isobutyrate] | 15.1 | 
4 | NC(=O)c1nc([C@@H]2O[C@H](CO)[C@@H](O)[C@H]2O)sc1F [Example 3, 2-((2R,3R,4S,5R)-3,4-Dihydroxy-5-(hydroxymethyl)tetrahydrofuran-2-yl)-5-fluorothiazole-4-carboxamide] | 40.7 | 10.1
5 | NC(=O)c1cc([C@@H]2O[C@H](CO)[C@@H](O)[C@H]2O)sn1 [Example 2, 5-((2R,3R,4S,5R)-3,4-Dihydroxy-5-(hydroxymethyl)tetrahydrofuran-2-yl)isothiazole-3-carboxamide] | 54.7 | 0.32
6 | CC(C)OC(=O)OCOP(=O)(OCOC(=O)OC(C)C)OC[C@H]1O[C@@H](c2nc(C(N)=O)ns2)[C@H](O)[C@@H]1O [Example 6] | 4.66 | 1.85
